# Reference: patent US20260256799A1, “INHIBITORS FOR TREATING SOLID TUMOURS” (UNIVERSITY OF SOUTHAMPTON, priority 2023, published 2026)
# Assays:
# HFFF2 [1] = assay: ROS assay (DCFH-DA fluorescence); format: cell-based, human; conditions: GKT137831 40 μM, HFFF2 treated 48 hours with TGF-β1
# Procedure: (§1) HFFF2s were plated in 24-well plates (1×10^3 or 5×10^3 cells/well) and treated with TGF-β1 the following day (and then every 3 days). Senescence was quantified at day 5 and 12 from TGF-β1 treatment determining the percentage of SA-β-Gal-positive cells (Sigma) of the total number of cells counterstained with Dapi (Sigma) as previously described. At least 200 cells/well in at least three independent experiments were counted per sample using a CKX41 Olympus fluorescent microscope. Cells were less than 50% confluent at the end of the experiment to avoid SA-β-Gal-false positive cells due to cell contact. ROS assay was performed as previously.
# ATM [2] = assay: ATM activation and dimerization in CAF nuclear extracts (Western blotting); format: cell-based, human; conditions: GKT137831 daily for 72 hours
# Procedure: (§2) Human NSCLC cell line H441, HNSCC SCC25, murine cancer cell line TC-1 (lung), MC38 (colon) and human fetal foreskin fibroblasts HFFF2 were purchased from European Collection of Cell Cultures (Public Health England) or ATCC; HNSCC 5PT [32] were provided by l. Mackenzie (Queen Mary University of London, UK). HEK-293T cells and IMR90 lung fibroblasts were provided by Jesus Gil (Imperial College, London, UK). SCC25 were grown in Ham's F12:DMEM (1:1 ratio) medium with 10% FBS (Calbiochem) and 292 μg/ml L-Glutamine. 5PT were cultured in keratinocyte growth medium. HEK-293T, H441, MC38, HFFF2, IMR90 and primary fibroblasts were grown in DMEM supplemented with 10% FBS and 292 μg/ml L-Glutamine. Primary fibroblasts were isolated as previously used at early passage (p1-10). […]
# (§3) Cells were lysed in ice-cold RIPA buffer [1% NP40, 150 mM NaCl, 25 mM Tris-HCl pH 7.5, 0.1% SDS, 1% Na-Deoxycolate, 1 mM EGTA, 1 mM EDTA, 1 mM Na-orthovanadate, 10 mM Na-fluoride, 2.5 mM Na-pyrophosphate, 1 mM p glycerophosphate+freshly added 1 mM PMSF, 20 mM N-Ethylmaleimide (NEM), 10 ng/ml Microcystin-LR, 0.12 μM Okadaic acid and phosphatase and protease inhibitor cocktails; all from Sigma]. Protein extracts were then centrifuged and supernatants quantified using Dc-Bio-Rad protein assay kit (Bio-Rad laboratories) as previously. […]
# ATM [3] = assay: TGF-β1-dependent ATM activation in fibroblasts (Western blotting); format: cell-based, human
# Procedure: as §2, with “(p1-10). C57BL/6 murine normal lung and colon fibroblasts (MLF and MCF respectively) were grown at 3% oxygen. TC-1 were cultured in RPMI supplemented with 10% FBS and 292 μg/ml L-Glutamine. All cell cultures were routinely tested for mycoplasma contamination. All cells were cultured using standard cell culture plates/flasks (Corning). HFFF2 or IMR90 cells were transfected with 25 μM On-Target pool siRNA (Thermo Scientific/Dharmacon) using Oligofectamine reagent (Life Technologies) as described. Stable knockdown was performed using retro/lentiviral mediated transduction of shRNA plasmids, as previously described followed by cell selection using 1 μg/ml puromycin for 5-7 days. NOX4-inducible HEK-293 cells (kindly provided by Vincent Jaquet) were treated with 1 μg/ml doxycycline.” for “(p1-10).”
# as §3
# NOX4 = biological target: T1, NOX4 (Homo sapiens, UniProt Q9NPH5); conditions: cited from earlier work
# T1 sequence (Q9NPH5 1-578): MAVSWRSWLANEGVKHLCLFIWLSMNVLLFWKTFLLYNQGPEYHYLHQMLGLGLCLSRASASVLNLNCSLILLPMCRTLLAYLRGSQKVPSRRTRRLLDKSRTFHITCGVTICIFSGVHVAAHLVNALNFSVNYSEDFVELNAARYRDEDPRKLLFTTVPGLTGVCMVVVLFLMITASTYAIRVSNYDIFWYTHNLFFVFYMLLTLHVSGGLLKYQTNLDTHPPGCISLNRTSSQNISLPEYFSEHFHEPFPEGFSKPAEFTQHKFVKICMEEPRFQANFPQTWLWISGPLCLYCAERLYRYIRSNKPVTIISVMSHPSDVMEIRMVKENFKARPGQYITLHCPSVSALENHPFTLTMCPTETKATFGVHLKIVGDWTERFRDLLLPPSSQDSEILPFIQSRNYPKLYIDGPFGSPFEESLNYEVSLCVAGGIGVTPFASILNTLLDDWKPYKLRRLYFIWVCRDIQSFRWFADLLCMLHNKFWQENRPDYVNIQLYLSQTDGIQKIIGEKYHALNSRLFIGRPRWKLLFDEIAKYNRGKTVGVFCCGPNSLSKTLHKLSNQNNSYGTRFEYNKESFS
# T1 sequence (P13498 1-195 partner): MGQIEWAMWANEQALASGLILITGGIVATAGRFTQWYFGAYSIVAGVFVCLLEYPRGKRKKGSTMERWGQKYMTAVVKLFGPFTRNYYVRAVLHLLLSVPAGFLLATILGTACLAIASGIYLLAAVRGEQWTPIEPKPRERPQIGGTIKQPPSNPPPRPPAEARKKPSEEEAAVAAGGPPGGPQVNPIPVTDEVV
# HNSCC and NSCLC CAF = assay: Established myoCAF phenotype of CAF cultured ex vivo; format: cell-based, human
# Procedure: (§4) Human NSCLC cell line H441, HNSCC SCC25, murine cancer cell line TC-1 (lung), MC38 (colon) and human fetal foreskin fibroblasts HFFF2 were purchased from European Collection of Cell Cultures (Public Health England) or ATCC; HNSCC 5PT [32] were provided by l. Mackenzie (Queen Mary University of London, UK). HEK-293T cells and IMR90 lung fibroblasts were provided by Jesus Gil (Imperial College, London, UK). SCC25 were grown in Ham's F12:DMEM (1:1 ratio) medium with 10% FBS (Calbiochem) and 292 μg/ml L-Glutamine. 5PT were cultured in keratinocyte growth medium. HEK-293T, H441, MC38, HFFF2, IMR90 and primary fibroblasts were grown in DMEM supplemented with 10% FBS and 292 μg/ml L-Glutamine. Primary fibroblasts were isolated as previously used at early passage (p1-10). C57BL/6 murine normal lung and colon fibroblasts (MLF and MCF respectively) were grown at 3% oxygen. TC-1 were cultured in RPMI supplemented with 10% FBS and 292 μg/ml L-Glutamine. All cell cultures were routinely tested for mycoplasma contamination. All cells were cultured using standard cell culture plates/flasks (Corning). HFFF2 or IMR90 cells were transfected with 25 μM On-Target pool siRNA (Thermo Scientific/Dharmacon) using Oligofectamine reagent (Life Technologies) as described. Stable knockdown was performed using retro/lentiviral mediated transduction of shRNA plasmids, as previously described followed by cell selection using 1 μg/ml puromycin for 5-7 days. NOX4-inducible HEK-293 cells (kindly provided by Vincent Jaquet) were treated with 1 μg/ml doxycycline. Wild type and mutant (C2991L) ATM over-expression was carried out transfecting HFFF2 with Viafect (Promega) according to manufacturer's instructions and selected for 10 days with 4 mg/ml G418. p-Retrosuper-shATM (ATM #1:912) and pCDNA3.1-Flag-mut-ATM (C2991L; pTP1625 clone) were kindly provided by Yosef Shiloh and Tanya Paull respectively. pLKO.1 murine shATM (TRCN0000012643) and pCDNA3.1-Flag-wt-ATM (31985) were purchased from Sigma and Addgene respectively. 2 ng/ml TGF-3 (TGF-β1; R&D Systems; for 3 days) was used to induce myofibroblast differentiation. 10 ng/ml IL-1pR (R&D Systems) for 72 hours was used to induce iCAF differentiation. […] All the inhibitors were resuspended in DMSO. To trigger DDR activation and/or cell stress HFFF2 were either irradiated with 2-100Gy using 350Kv X-Ray Irradiation System (Faxitron), or treated with 100 ng/ml Neocarzinostatin for 2 hours (NCS; Sigma), with 2-10 mM H2O2(Fisher Scientific) or with 5 μg/ml Cisplatin (Sandoz) for 30 minutes.
# Cells were lysed in ice-cold RIPA buffer [1% NP40, 150 mM NaCl, 25 mM Tris-HCl pH 7.5, 0.1% SDS, 1% Na-Deoxycolate, 1 mM EGTA, 1 mM EDTA, 1 mM Na-orthovanadate, 10 mM Na-fluoride, 2.5 mM Na-pyrophosphate, 1 mM p glycerophosphate+freshly added 1 mM PMSF, 20 mM N-Ethylmaleimide (NEM), 10 ng/ml Microcystin-LR, 0.12 μM Okadaic acid and phosphatase and protease inhibitor cocktails; all from Sigma]. Protein extracts were then centrifuged and supernatants quantified using Dc-Bio-Rad protein assay kit (Bio-Rad laboratories) as previously. For nuclear-cytoplasmic protein extraction, the inventors used NE-PER Reagents according to manufacturer's instructions (Thermofisher). Equal amounts of protein were electrophoresed either in reducing (+Dithiothreitol, DTT) or in non-reducing conditions in 3-8% or 4-12% SDS-PAGE gels and electro blotted as previously.
# HFFF2 fibroblasts = assay: TGF-β1-induced myofibroblast differentiation of fibroblasts (Western blotting, immunofluorescence, Q-RT-PCR, collagen gel contraction); format: cell-based, human
# Procedure: as §4
# 5×10^3 HFFF2 were plated on permanox chamber slides (Thermo Scientific) and treated as described in the figure legends. Immunostaining was performed as previously. DAPI was used as nuclear counterstain and coverslips were mounted using fluorescent mounting solution (Dako). Images were taken using an Olympus IX81 fluorescence microscope and Xcellence program. DNA Damage foci were quantified from at least 8 non-overlapping FoV with ~300 cells in total per condition. Kruskall-Wallis statistical test was used to indicate the presence of a different distribution per time points in each group of foci. For collagen 1A1 deposition, 5×10^3 HFFF2 or MLF were seeded into chamber slides and treated with TGF-β1±inhibitors for a week (treated day 1 & day 4). Decellularisation was performed using 0.25M NH4OH in 50 mM Tris at 37° C. for 30 minutes and slides fixed with ice-cold 100% methanol at −20° C. followed by a blocking step. The remainderwas performed as previously described. SMA and Collagen 1A1 quantification was performed using Fiji. High resolution imaging of mouse tumours was carried out using an Axioscan.Z1 scanner (Zeiss).
# H441, 5PT, SCC25 cells = assay: Transwell invasion assay towards fibroblast-conditioned media; format: cell-based, human
# Procedure: CAF, HFFF2 or shCTR/shATM HFFF2 populations were treated with 13.3 μM KU55933+/−TGF-β1 for 7 days (treated day 1, day 4). Cells were washed twice with PBS and serum-free DMEM added for 72 hours. Fibroblast-conditioned medium (CM) was collected, centrifuged, filtered (0.2 μm), normalized according to cell number and used as a chemoattractant in the lower chamber of Transwell invasion assays as previously. Two-way Anova was used for statistical analysis.
# HFFF2 [4] = assay: IL-1-induced iCAF gene expression (Q-RT-PCR); format: cell-based, human; conditions: KU55933 + 10 ng/ml IL-1p 72 hours
# Procedure: as §2, with “(p1-10). C57BL/6 murine normal lung and colon fibroblasts (MLF and MCF respectively) were grown at 3% oxygen. TC-1 were cultured in RPMI supplemented with 10% FBS and 292 μg/ml L-Glutamine. All cell cultures were routinely tested for mycoplasma contamination. All cells were cultured using standard cell culture plates/flasks (Corning).” for “(p1-10).”
# For Quantitative Real-time PCR (Q-RT-PCR), RNA was extracted and retro-transcribed as described previously and Q-RT-PCR was performed as previously. The mRNA expression levels were analyzed using the AACt relative quantitation method. […]
# HFFF2 [5] = assay: Senescence assay (SA-β-Gal); format: cell-based, human; conditions: continuous TGF-β1 administration, at 12 days
# Procedure: as §1
# [6] = GKT137831 40 μM, HFFF2, TGF-β1 24 hours
compound,measurement,setting,value
CN(C)c1cccc(-c2c3c(=O)n(-c4ccccc4Cl)[nH]c3cc(=O)n2C)c1 [GKT137831],ROS production,HFFF2 [1],suppressed
same,ATM dimerization,ATM [2]; non-reducing conditions,inhibited
same,ATM activation,ATM [2]; two HNSCC CAF and one NSCLC CAF,inhibited
same,ATM downstream kinase activity,ATM [3]; [6],inhibited
same,ATM phosphorylation,ATM [3]; [6],inhibited
same,DNA damage monitored by pH2AX protein expression,"ATM [3]; GKT137831, HFFF2, TGF-β1 48 hours",decreased
same,myoCAF differentiation,NOX4,suppresses
same,myoCAF-mediated immunotherapy resistance,NOX4,overcomes
O=c1cc(-c2cccc3c2Sc2ccccc2S3)oc(N2CCOCC2)c1 [KU55933],CAF phenotype,HNSCC and NSCLC CAF; KU55933 for 7 days,reverted CAF to a more quiescent phenotype
same,"expression of myofibroblast markers (SMA, collagen I, fibronectin)",HNSCC and NSCLC CAF; KU55933 for 7 days,downregulating
same,contractility,"HNSCC and NSCLC CAF; collagen gel contraction, ATM inhibition by KU55933 or shRNA-knockdown",suppressing
same,expression of SMA,"HFFF2 fibroblasts; KU55933 13.3 μM + TGF-β1 72 hours, HFFF2 and primary colon, skin, oral fibroblasts",inhibiting
same,SMA-positive stress fiber formation,"HFFF2 fibroblasts; KU55933 13.3 μM + TGF-β1, 3 days, HFFF2",inhibiting
same,collagen1 deposition,"HFFF2 fibroblasts; KU55933 13.3 μM + TGF-β1, 7 days, HFFF2, MLF one week",inhibiting
same,contraction of collagen gels,"HFFF2 fibroblasts; KU55933 13.3 μM + TGF-β1, HFFF2 or normal primary oral fibroblasts",inhibiting
same,myofibroblast differentiation,HFFF2 fibroblasts; KU55933 13.3 μM co-treated with TGF-β1,suppressed differentiation
same,"TGF-β1 induction of myoCAF genes (COL11A1, ASPN, ELN)","HFFF2 fibroblasts; KU55933 + TGF-β1 72 hours, HFFF2, Q-RT-PCR",suppressed
same,invasion-promoting effects of myofibroblasts generated through TGF-β1 treatment,"H441, 5PT, SCC25 cells; 5PT or SCC25 cells towards conditioned media of HFFF2 treated with TGF-β1 +/− KU55933 7 days",suppressed
same,myoCAF-dependent cancer cell invasion,"H441, 5PT, SCC25 cells; H441 or 5PT cells towards conditioned media of NSCLC / HNSCC CAF treated with KU55933 13.3 μM 7 days",inhibiting
same,"IL-1p induction of most iCAF genes (CCL2, LIF, IL6, CXCL1)",HFFF2 [4],significantly upregulated
TGF-β1: cytokine (R&D Systems) used to induce myofibroblast differentiation,% range SA-β-Gal-positive cells,HFFF2 [5],15.8-23.3%
